The target in assay [1] is T1, IP3 binding domain (IBD, amino acid residues 1-885) of human IP3 receptor type 1 (Homo sapiens, UniProt Q14643).
T1 construct: glutathione S-transferase (GST), joined by linker Leu-Val-Pro-Arg-Gly-Ser (N); His tag, joined by linker Leu-Val-Pro-Arg-Gly-Ser (C); made in house; host or cells: Escherichia coli BL-21 (DE3), vector pGEX2T
As to the kind of experiment: Surface plasmon resonance competitive binding assay on Compound 1-immobilized sensor tip. The settings on record: for non-specific binding to the IP3 receptor in the competitive assay: IBD 1.76 nM, FIG. 1C; for Kd: SPR competitive assay, Compound 2b re-assayed at IBD 1.76 nM; for Kd / binding of IBD to a Compound 1-immobilized tip: IBD 52.8 nM; for binding of IBD to a Compound 1-immobilized tip: competitive assay, FIG. 1B; for affinity relative to that of IP3: ratio of affinity to IBD versus IP3 (Table 1). An excerpt: (1) Expression and Purification of Human IP3 Receptor Type 1
The IP3 binding domain (IBD, amino acid residues 1-885, Mignery, G. A., et al., EMBO J., 9, 3893, 1990) of human IP3 receptor type 1 (Yamada, N., et al., Biochem. J., 302, 781, 1994) was subcloned in pGEX2T (Amersham Pharmacia) for expression in bacteria. The N-terminus of IBD was fused to glutathione S-transferase using a linker sequence Leu-Val-Pro-Arg-Gly-Ser, whilst the C-terminus of IBD was labeled at His using a linker sequence Leu-Val-Pro-Arg-Gly-Ser. The protein was expressed in Escherichia coli BL-21 (DE3), and a recombinant protein was purified by using a resin on which Ni-NTA was immobilized (Amersham Pharmacia) and a HiTrap NHS-activated affinity column (Amersham Pharmacia) to which Compound 1 was bound. The purity of protein was calculated as 22% based on the result from SDS-PAGE.
(2) Measurement of Surface Plasmon Resonance
Surface plasmon resonance (SPR) was measured by using BIAcore 2000 (Amersham Pharmacia). After activation with NHS and EDC, 10 mM of Compound 1 in 100 mM borate buffer (pH 8.5) was bound to the surface of CM5 sensor tip, and inactivated with ethanolamine. In order to determine dissociation constants of IP3, Compound 1, Compound 2a, and Compound 2b, IBD purified beforehand was dissolved in a mobile phase buffer (10 mM HEPES, 150 mM NaCl, 3.4 mM EDTA and 0.005% Tween20, pH 7.4) together with each of the compounds. After each sample was injected, the tip surface was regenerated with 100 mM NaOH.
IBD bound to the tip in a concentration-dependent manner, however, non-specific binding with BSA (or glutathione S-transferase) was not observed. […] In order to determine affinity of IP3, Compound 1, Compound 2a and Compound 2b to IBD, a competitive assay was performed as follows. IBD (52.8 nM) was mixed with each of the aforementioned compounds at various concentrations. When the mixture was introduced onto the tip, a compound that competed with Compound 1 was […] (FIG. 1B). SPR obtained from this assay was applied to the equation to calculate dissociation constant (Kd) of each compound.
(3) Calculation of Dissociation Constants
For calculation of Kd of each compound, the resulting data plotted in FIGS. 1B and 1C were applied to the formula: 100[1−[X+Y+Kd−{X^2+2X (Kd−Y)+(Kd+Y)^2}^½]/2Y] wherein X and Y are a concentration of each compound and IBD concentration, respectively. […] Therefore, the IBD concentration was lowered to 1.76 nM, and the competitive assay for Compound 2b was performed again (FIG. 1C). The binding assay was carried out under a light condition and under a dark condition to verify that the binding was not affected by light.

The subject of another assay is IP3 receptor. As to the kind of experiment: Denaturation of the IP3 receptor by light irradiation: IP3-induced Ca2+ releasing activity in smooth muscle tissue specimen. The settings on record: guinea pig portal vein smooth muscle, 1 μM compound, 1 μM IP3, FIG. 2C. As for the experimental part: (1) Preparation of a Tissue Specimen
A strip of smooth muscle tissue prepared from a portal vein of male guinea pigs (weight 200-300 g) was fixed on a stainless steel wire to prepare a tissue specimen.
(2) Measurement of Ca^2+ Releasing Activity
The above specimen was incubated at 35° C. for 3.5 hours in a 40 μM solution of mag-fura-2 AM (Molecular Probes) as a Ca^2+ fluorescent indicator to have the mag-fura-2 AM taken up by the specimen. Subsequently, the specimen was incubated at 35° C. for 1.5 to 2 hours in a 40-60 μM solution of β-escin as a surfactant to remove the mag-fura-2 AM present other than in intracellular organelles.
The specimen was inserted into a glass capillary, and then initial change of fluorescence intensity ratio (fluorescence intensity at Ex. 340 nm, Em.480 nm/fluorescence intensity at Ex. 375 nm, Em. 480 nm, i.e., releasing rate), at addition of various solutions to the specimen, was fitted to an exponential curve to obtain a value as Ca^2+ releasing activity. As the fluorescence photometer, CAF-110 (JASCO) was used. […]
The tissue specimen prepared in the above (1) was added with 1 μM IP3, and its Ca^2+ releasing activity was measured (before irradiation). This specimen was removed from a fluorescence photometer after the measurement, and the inside of a capillary was filled with 1 μM solution of Compound 2b. […]

As usually defined, the Kd is the equilibrium constant for the complex coming apart.

T1 sequence (Q14643 1-885 isoform Q14643-4): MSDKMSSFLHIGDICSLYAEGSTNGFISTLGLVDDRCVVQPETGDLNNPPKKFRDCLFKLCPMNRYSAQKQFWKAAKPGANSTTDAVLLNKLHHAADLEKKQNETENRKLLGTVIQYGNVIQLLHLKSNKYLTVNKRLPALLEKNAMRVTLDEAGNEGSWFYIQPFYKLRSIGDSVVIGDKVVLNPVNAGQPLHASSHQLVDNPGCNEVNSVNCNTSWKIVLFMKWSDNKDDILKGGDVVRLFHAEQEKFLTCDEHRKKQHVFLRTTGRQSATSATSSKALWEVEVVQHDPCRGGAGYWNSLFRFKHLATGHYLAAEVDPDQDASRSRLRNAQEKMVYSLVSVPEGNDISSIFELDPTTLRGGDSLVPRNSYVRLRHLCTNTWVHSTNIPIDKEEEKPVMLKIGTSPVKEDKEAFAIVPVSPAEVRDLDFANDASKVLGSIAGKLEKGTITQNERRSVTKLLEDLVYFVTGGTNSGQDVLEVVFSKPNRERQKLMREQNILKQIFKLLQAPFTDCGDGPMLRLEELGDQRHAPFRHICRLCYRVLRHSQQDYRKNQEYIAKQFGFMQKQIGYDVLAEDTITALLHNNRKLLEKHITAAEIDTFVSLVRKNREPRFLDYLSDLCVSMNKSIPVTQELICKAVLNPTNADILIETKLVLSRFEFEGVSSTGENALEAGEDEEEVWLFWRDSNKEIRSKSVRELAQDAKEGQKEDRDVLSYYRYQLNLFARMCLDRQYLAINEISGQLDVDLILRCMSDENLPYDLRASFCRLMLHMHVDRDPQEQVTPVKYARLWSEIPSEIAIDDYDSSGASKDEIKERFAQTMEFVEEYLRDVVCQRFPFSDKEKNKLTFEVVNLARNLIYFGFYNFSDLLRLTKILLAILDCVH

In the case of carboxymalachite green, in assay [1], the “non-specific binding to the IP3 receptor in the competitive assay” value is on record as “non-specific binding was not observed”.
`CN(C)c1ccc(C(=C2C=CC(=[N+](C)C)C=C2)c2ccc(C(=O)NCCCOP(=O)(O)O[C@@H]3[C@H](O)[C@H](O)[C@@H](OP(=O)(O)O)[C@H](OP(=O)(O)O)[C@H]3O)cc2)cc1` [Compound 2b]: in the assay on IP3 receptor, the “Ca2+ releasing activity induced by IP3, addition of compound only (no laser irradiation)” value is “not reduced”. For the same molecule, the “Ca2+ releasing activity induced by IP3, addition of compound and laser irradiation” value in the assay on IP3 receptor (635 nm laser 3 minutes) is on record as “remarkably reduced”. Besides, in assay [1], the “non-specific binding to the IP3 receptor in the competitive assay” value is “specifically bound to the IP3 receptor”, the Kd was found to be 0.00117 µM, the “binding of IBD to a Compound 1-immobilized tip” value (from here on “binding of IBD”) is “inhibited” and the “affinity relative to that of IP3” value is recorded as 167 fold.
On to `NCCCOP(=O)(O)O[C@@H]1[C@H](O)[C@H](O)[C@@H](OP(=O)(O)O)[C@H](OP(=O)(O)O)[C@H]1O` [Compound 1], for which, in assay [1], the dissociation constant Kd was 1.1 µM, the “binding of IBD” value is reported as “inhibited” and the “affinity relative to that of IP3” value was “about ⅙”.
For `O=P(O)(O)O[C@@H]1[C@H](O)[C@H](O)[C@@H](OP(=O)(O)O)[C@H](OP(=O)(O)O)[C@H]1O` [IP3, D-Myo-inositol-1,4,5-trisphosphate], in assay [1], the affinity, expressed as Kd, was 0.195 µM and the “binding of IBD” value was “inhibited”.

(Values after US6656927B1, “Ip3 receptor ligands” (Daiichi Pharmaceutical., Ltd., priority 1999, dated 2003).)
